Assay [1] has as its system HUVECs. As to the kind of experiment: HUVEC proliferation (crystal violet), 10% serum with ECGS. Type of assay: cell-based, human. As to conditions: for IC50: Homo sapiens, HUVEC, 10% serum with ECGS, n=3. As to the method:
(§1) Human umbilical vein endothelial cells (H 930) were generously supplied by Dr. Tom Maciag, American Red Cross (Gaithersburg, Md., USA) and were used between passages 9 and 14 to avoid senescence. HUVECs were grown on fibronectin-coated tissue culture plastic (200 μg/150 mm dish) in complete medium (Medium 199 (M-199) containing 5 U/mL preservative-free heparin, 25.5 μg/mL ECGS, 10% fetal bovine serum and 100 U/mL penicillin, 100 μg/mL streptomycin, and 0.25 μg/mL fungizone).
The effect of compound 1 on HUVEC proliferation was examined over a 5 day period of culture. Cell monolayers were incubated with increasing concentrations of compound 1 and evaluated incrementally for growth inhibition.
Growth inhibition of HUVECs by compound 1 was measured by crystal violet nuclear stain. Briefly, 50,000 cells were seeded per well in 24 well plates using complete medium in the presence of increasing concentrations of compound 1 (0.01-10 μM) or DMS0 vehicle control (0.1%) and cultures were incubated for 24-120 hours. After incubation, cells were washed carefully with Dulbecco's phosphate-buffered saline (DPBS), fixed and stained with 0.5% crystal violet in 20% methanol. Excess stain was removed with water, the cell monolayers were air-dried, and then bound stain was eluted with a 1:1 solution of 0.1N sodium citrate (pH 4.2): 100% ethanol. Optical density of the eluted samples was determined at 540 nm and the results were expressed as percent of DMSO control cell growth. Data are expressed as percentage of control value and are presented as mean±SEM (n=3).

Assay [2] concerns MMP-2. In words: Gelatin zymography of HUVEC conditioned medium, bFGF-stimulated proMMP-2 and its activated form. It counts as cell-based. The note with it: Homo sapiens, bFGF 10 ng/mL for final 24 hr, read-out: inhibition of bFGF-stimulated synthesis of proMMP-2 and its activated form. As to the method: as §1
Gelatin zymography was carried out as described in Brown, et al., Cancer Research 50:6184-6191 (1990). HUVECs were seeded at 1.2×10^5 /cm^2 in 25 cm^2 fibronectin-coated tissue culture flasks in complete medium containing increasing concentrations of compound 1 (0.1-10 μM) or DMSO vehicle control. After 18 hr of culture, the complete medium was removed and the cells were washed once with serum-free M-199 supplemented with 5 μg/mL bovine insulin, 5 μg/mL human transferrin and 5 ng/mL sodium selenite (ITS). A further 24 hr incubation was carried out with 3 mL of fresh ITS-containing M-199 and varying concentrations of compound 1 (0.1-10 μM) or DMSO vehicle control (0.1%). This conditioned medium was harvested and spun free of cells.
See, Rifkin, et al., J. Cell Biol. 109:1-6 (1989). […]

Assay [3] concerns β-actin. In words: Northern blot, β-actin probe for quantitation of RNA load in HUVECs. Type of assay: cell-based, human. The note with it: 24 hr. As to the method:
as §1
HUVECs were grown to confluence as described. Fresh complete medium with test compounds was added to confluent cells for an additional 24 hr incubation. bFGF (10 ng/mL), and/or compound 1 (10 μM) or DMSO control (0.1%) were added as indicated below. Total RNA was isolated by the guanidine isothiocyanate/CsCl method. Aliquots of RNA (7.5 μg) were separated on 1% agarose/formaldehyde gels, passively transferred to GeneScreen Plus membrane in 20X SSC, then cross-linked with ultraviolet light. Blots were prewashed for 1 hr at 42° C. in 1M NaCl, 10 mM Tris, 1 mM EDTA, 0.1% SDS and then hybridized overnight at 42° C. with a formamide-containing buffer (hybridization buffer final: 50% formamide, 4X SSC, 10 mM Tris pH 7.5, IX Denhardt solution, 0.2% SDS, 125 μg/ml salmon sperm DNA) with a random-primed 300 bp insert for MMP-2 (gift of Dr. William Stetler-Stevenson, Laboratory of Pathology, NCI). Blots were washed under stringent conditions then exposed to film. After removal of MMP-2 probe, blots were rehybridized with β-actin probe for quantitation of the RNA load. Results were quantitated by densitometric evaluation of the autoradiographs.
Lane 1 corresponds to the mRNA from HUVECs treated with DMSO (control). Lanes 2-4 show the mRNA isolated from HUVECs treated with compound 1 (10 μM) alone, compound 1 (10 μM) and bFGF (10 ng/mL), bFGF (10 ng/mL) alone, respectively.

The term IC50 denotes the concentration needed to halve the response being measured. Higher therefore signals lower potency. One may read the inhibition as the relative decrease from the control value, in per cent. On to `NC(=O)c1nnn(Cc2cc(Cl)c(C(=O)c3ccc(Cl)cc3)c(Cl)c2)c1N` [Compound 1, 5-amino-1-(4-(4-chlorobenzoyl)-3,5-dichlorobenzyl)1,2,3-triazole-4-carboxamide], for which the “inhibition of endothelial cell proliferation (in words)” value in assay [1] (0.01-10 μM, 24, 72 and 120 hrs) is given as “dose-dependent but not time-dependent inhibition”. The IC50 in assay [1] (24 h, 1 day of culture) worked out at 1.31 ± 0.03 µM; in assay [1] (72 h, 3 days of culture) it was 2.14 ± 0.03 µM; in assay [1] (120 h, 5 days of culture) it was 2.08 ± 0.01 µM. For the same compound, the inhibition at 10 µM in assay [2] came to 90%. The “β-actin (densitometer)” value in assay [3] (Control + Compound 1, 10 μM) came out at 127 Densitometer units; in assay [3] (bFGF 10 ng/mL + Compound 1 10 μM), 210 Densitometer units.

(Values after US5744492A, “Method for inhibiting angiogenesis” (United States of America, priority 1994, dated 1998).)
